Source: PubChem BioAssay AID328 (DTP/NCI, 2004)
Where “and” joins values, the source holds several entries; their conditions need not be identical. Equal values may be shown once. Inconclusive results and toxic doses are left out. How the source made its calls: active means survival T/C of 150% or more; inactive means T/C below 125% in these data. Residues, ends and D or L forms follow the SMILES beside them. *: point of attachment. Bn = c1ccc(C*)cc1

Test system: BDF1 mice, P388 leukemia ip, median survival T/C
Assay: NCI In Vivo Anticancer Drug Screen. Data for tumor model P388 Leukemia (intraperitoneal) in B6D2F1 (BDF1) mice
Settings: endpoint: median survival time, higher = longer survival
Outline: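 Mice carrying the transplantable tumour receive compound or vehicle. Survival is followed in each arm, and the treated measure is divided by the vehicle measure.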

[1] = dose: 100.0 mg/kg/injection, schedule: Q01DX009 (ip), vehicle: Klucel (hydroxypropylcellulose) (HPC)
[2] = dose: 200.0 mg/kg/injection, schedule: Q01DX009 (ip), vehicle: Klucel (hydroxypropylcellulose) (HPC)
[3] = dose: 12.5 mg/kg/injection, schedule: Q01DX009 (ip), vehicle: saline with Tween-80
[4] = dose: 25.0 mg/kg/injection, schedule: Q01DX009 (ip), vehicle: saline with Tween-80
[5] = dose: 50.0 mg/kg/injection, schedule: Q01DX009 (ip), vehicle: saline with Tween-80
[6] = dose: 50.0 mg/kg/injection, schedule: Q04DX003 (ip), vehicle: saline with Tween-80
[7] = dose: 100.0 mg/kg/injection, schedule: Q01DX009 (ip), vehicle: saline with Tween-80
[8] = dose: 100.0 mg/kg/injection, schedule: Q04DX003 (ip), vehicle: saline with Tween-80
[9] = dose: 50.0 mg/kg/injection, schedule: Q01DX009 (ip), vehicle: other
[10] = dose: 100.0 mg/kg/injection, schedule: Q01DX009 (ip), vehicle: other
[11] = dose: 100.0 mg/kg/injection, schedule: Q01DX001 (ip), vehicle: saline with Tween-80
[12] = dose: 200.0 mg/kg/injection, schedule: Q01DX001 (ip), vehicle: saline with Tween-80
[13] = dose: 200.0 mg/kg/injection, schedule: Q01DX009 (ip), vehicle: saline with Tween-80

Measured: T/C

O=C(Nc1ccc2c(c1)C(Br)c1ccccc1-2)C(F)(F)F (configuration not stated)
inactive: dose: 50.0 mg/kg/injection, schedule: Q01DX009 (ip), vehicle: Klucel (hydroxypropylcellulose) (HPC) 90 % of control | [1] 100 % of control | [2] 118 % of control

COC(=O)C(CC(C)C)NC(=O)C(N)Cc1ccc(OCc2ccccc2)cc1 (configuration not stated) (H-Tyr(Bn)-Leu-OMe; configuration not given here)
inactive: [3] 105 % of control | [4] 100 % of control | [5] 105 % of control and 120 % of control | [6] 105 % of control | [7] 105 % of control | [8] 100 % of control

CN1CCN(C)P1OCC(F)(F)F
inactive: dose: 25.0 mg/kg/injection, schedule: Q01DX005 (ip), vehicle: saline 87 % of control | dose: 50.0 mg/kg/injection, schedule: Q01DX005 (ip), vehicle: saline 100 % of control | dose: 100.0 mg/kg/injection, schedule: Q01DX005 (ip), vehicle: saline 87 % of control

COc1ccc(Cc2ccccc2)c(O)c1
inactive: [9] 108 % of control | [10] 104 % of control | dose: 100.0 mg/kg/injection, schedule: Q04DX003 (ip), vehicle: other 109 % of control | dose: 200.0 mg/kg/injection, schedule: Q01DX009 (ip), vehicle: other 116 % of control | dose: 200.0 mg/kg/injection, schedule: Q04DX003 (ip), vehicle: other 104 % of control | dose: 400.0 mg/kg/injection, schedule: Q04DX003 (ip), vehicle: other 109 % of control

NCCCNCCCCNCCCN
inactive: dose: 50.0 mg/kg/injection, schedule: Q01DX001 (ip), vehicle: saline 110 % of control

c1ccc2c(c1)Cc1nc3ccccc3nc1-2
inactive: dose: 3.12 mg/kg/injection, schedule: Q01DX009 (ip), vehicle: water 87 % of control | dose: 6.25 mg/kg/injection, schedule: Q01DX009 (ip), vehicle: water 101 % of control and 110 % of control | dose: 12.5 mg/kg/injection, schedule: Q01DX009 (ip), vehicle: water 87 % of control and 110 % of control | dose: 25.0 mg/kg/injection, schedule: Q01DX009 (ip), vehicle: water 93 % of control and 106 % of control and 114 % of control | dose: 25.0 mg/kg/injection, schedule: Q04DX003 (ip), vehicle: water 116 % of control | dose: 50.0 mg/kg/injection, schedule: Q01DX009 (ip), vehicle: water 89 % of control and 95 % of control | dose: 50.0 mg/kg/injection, schedule: Q04DX003 (ip), vehicle: water 102 % of control | dose: 100.0 mg/kg/injection, schedule: Q01DX009 (ip), vehicle: water 87 % of control and 110 % of control | dose: 100.0 mg/kg/injection, schedule: Q04DX003 (ip), vehicle: water 103 % of control | dose: 200.0 mg/kg/injection, schedule: Q01DX009 (ip), vehicle: water 98 % of control | dose: 200.0 mg/kg/injection, schedule: Q04DX003 (ip), vehicle: water 104 % of control | dose: 400.0 mg/kg/injection, schedule: Q01DX009 (ip), vehicle: water 104 % of control | dose: 400.0 mg/kg/injection, schedule: Q04DX003 (ip), vehicle: water 113 % of control

Nc1ncnc2sc3c(c12)CCCC3
inactive: [1] 105 % of control | [2] 114 % of control | dose: 400.0 mg/kg/injection, schedule: Q01DX009 (ip), vehicle: Klucel (hydroxypropylcellulose) (HPC) 108 % of control

CC(C)CNC(c1ccc2c(c1)OCO2)C(O)c1ccc2c(c1)OCO2 (configuration not stated)
inactive: [11] 100 % of control | [12] 115 % of control | dose: 400.0 mg/kg/injection, schedule: Q01DX001 (ip), vehicle: saline with Tween-80 108 % of control

COc1cccnc1/C=N/NC(N)=S
inactive: dose: 1.5 mg/kg/injection, schedule: Q01DX009 (ip), vehicle: saline with Tween-80 115 % of control | dose: 3.0 mg/kg/injection, schedule: Q01DX009 (ip), vehicle: saline with Tween-80 118 % of control
active: dose: 5.0 mg/kg/injection, schedule: Q01DX009 (ip), vehicle: saline with Tween-80 157 % of control | dose: 8.0 mg/kg/injection, schedule: Q01DX009 (ip), vehicle: saline with Tween-80 158 % of control | dose: 12.0 mg/kg/injection, schedule: Q01DX009 (ip), vehicle: saline with Tween-80 158 % of control and 175 % of control

COc1ccc(CNCC(OC)OC)cc1O
inactive: [11] 99 % of control | [12] 102 % of control

Clc1ccc2c(c1)Nc1cc(Cl)ccc1C=C2
inactive: dose: 75.0 mg/kg/injection, schedule: Q01DX001 (ip), vehicle: saline with Tween-80 91 % of control | dose: 150.0 mg/kg/injection, schedule: Q01DX001 (ip), vehicle: saline with Tween-80 100 % of control | dose: 300.0 mg/kg/injection, schedule: Q01DX001 (ip), vehicle: saline with Tween-80 100 % of control

c1ccc(CC(Cc2ccccc2)c2nc3ccccc3s2)cc1
inactive: dose: 75.0 mg/kg/injection, schedule: Q04DX003 (ip), vehicle: saline 100 % of control | dose: 150.0 mg/kg/injection, schedule: Q04DX003 (ip), vehicle: saline 100 % of control | dose: 300.0 mg/kg/injection, schedule: Q04DX003 (ip), vehicle: saline 95 % of control

NC(=O)CCC(N)C(=O)O.[Cl-].[Cl-].[Cl-].[Cl-].[Pt+2] (configuration not stated)
inactive: dose: 1.56 mg/kg/injection, schedule: Q01DX009 (ip), vehicle: saline 106 % of control | dose: 3.13 mg/kg/injection, schedule: Q01DX009 (ip), vehicle: saline 107 % of control | dose: 6.25 mg/kg/injection, schedule: Q01DX009 (ip), vehicle: saline 124 % of control
active: dose: 12.5 mg/kg/injection, schedule: Q01DX009 (ip), vehicle: saline 153 % of control | dose: 25.0 mg/kg/injection, schedule: Q01DX009 (ip), vehicle: saline 172 % of control

OCC(O)C(O)C(O)C(O)C(O)c1nc2ccccc2[nH]1 (configuration not stated)
inactive: [7] 100 % of control | [13] 91 % of control | dose: 400.0 mg/kg/injection, schedule: Q01DX009 (ip), vehicle: saline with Tween-80 93 % of control

C#CCn1cnc2c(Cl)ncnc21
inactive: [9] 118 % of control | [10] 100 % of control | dose: 100.0 mg/kg/injection, schedule: Q04DX003 (ip), vehicle: saline 108 % of control | dose: 200.0 mg/kg/injection, schedule: Q04DX003 (ip), vehicle: saline 104 % of control | dose: 400.0 mg/kg/injection, schedule: Q04DX003 (ip), vehicle: saline 95 % of control

N#Cc1cn(C2OC(CO)C(O)C2O)c2ncnc(N)c12 (configuration not stated)
inactive: dose: 0.38 mg/kg/injection, schedule: Q01DX009 (ip), vehicle: other 105 % of control | dose: 3.0 mg/kg/injection, schedule: Q04DX003 (ip), vehicle: other 100 % of control
active: dose: 0.37 mg/kg/injection, schedule: Q04DX003 (ip), vehicle: other 163 % of control | dose: 0.56 mg/kg/injection, schedule: Q04DX003 (ip), vehicle: other 159 % of control | dose: 0.83 mg/kg/injection, schedule: Q04DX003 (ip), vehicle: other 172 % of control | dose: 0.88 mg/kg/injection, schedule: Q04DX003 (ip), vehicle: other 154 % of control | dose: 1.25 mg/kg/injection, schedule: Q04DX003 (ip), vehicle: other 204 % of control | dose: 1.33 mg/kg/injection, schedule: Q04DX003 (ip), vehicle: other 200 % of control | dose: 2.0 mg/kg/injection, schedule: Q04DX003 (ip), vehicle: other 150 % of control

Clc1ccccc1-c1ncc2cnccn12
inactive: dose: 0.19 mg/kg/injection, schedule: Q01DX009 (ip), vehicle: saline with Tween-80 102 % of control | dose: 0.39 mg/kg/injection, schedule: Q01DX009 (ip), vehicle: saline with Tween-80 102 % of control | dose: 0.78 mg/kg/injection, schedule: Q01DX009 (ip), vehicle: saline with Tween-80 106 % of control | dose: 1.56 mg/kg/injection, schedule: Q01DX009 (ip), vehicle: saline with Tween-80 102 % of control | dose: 6.25 mg/kg/injection, schedule: Q01DX009 (ip), vehicle: saline with Tween-80 99 % of control and 103 % of control | [3] 86 % of control | [4] 88 % of control | dose: 25.0 mg/kg/injection, schedule: Q04DX003 (ip), vehicle: saline with Tween-80 115 % of control | [5] 86 % of control | [6] 107 % of control | [8] 88 % of control

O=C1CC(Nc2ccccc2)=C([N+](=O)[O-])C(=O)N1
inactive: [5] 109 % of control | [7] 102 % of control | [13] 109 % of control
